One may read the viability as a read-out of living cells in per cent, often relative to untreated cells.

This passage reports viability results from article PMC7822874, “Chemoprotective antimalarials identified through quantitative high-throughput screening of Plasmodium blood and liver stage parasites” (Scientific Reports, 2021).

The first data set in a line: in vitro. The conditions noted are these: human, hepg2-a16-cd81egfp cells.
For the compound `COc1cccc(OCCn2cc(C(=O)c3ccco3)c3ccccc32)c1` [MLS000050800], the viability at 3 µM turned out to be 106%. Turning to `COC(=O)C1=C(C)NC(C)=C(C(=O)OCCCN2CCC(c3ccccc3)(c3ccccc3)CC2)C1c1cccc([N+](=O)[O-])c1` (centres unmarked) [NCGC00163135], the viability at 3 µM stood at 81%.

Still in this data set, the particulars now being: human, hepg2-a16-cd81egfp cells, % viability.
As to `O=C(Nc1ccc2c(N3CCOCC3)ncnc2c1)c1cccc(Br)c1` [NCGC00425561], the viability at 3 µM was determined as 49.3%. Same read-out and setting: the value for `Cc1ccnc(NC(=O)c2cccc(S(=O)(=O)N3CCCc4ccccc43)c2)c1` [MLS001159724] was 89.6%; that for `CC(C)c1ccc(CC(=O)N2CCCc3ncc(C(=O)Nc4cccnc4)cc32)cc1` [NCGC00420003] was 45.1%. Regarding `O=C(Nc1ccc(N2CCN(c3ncccc3C(F)(F)F)CC2)nc1)c1cccs1` [MLS000862045], the viability at 3 µM was 92%. Consider `N#Cc1cc(C#N)c(N2CCN(c3cccc(Cl)n3)CC2)nc1N` [MLS000325470], for which the viability at 3 µM was found to be 99.6%.

Turning to `O=C(CCc1ccccc1)NC(c1cccs1)c1cc(Cl)c2cccnc2c1O` (centres unmarked) [MLS000703748], the viability at 3 µM was 54%. Still for that read-out and setting: the value for `CC(=O)N(C)C1=C(N2CCOCC2)C(=O)c2ccccc2C1=O` [MLS000570886] was 96.1%; that for `CC1CC(C)CN(C(=O)c2ccc3ccccc3c2)C1` (centres unmarked) [MLS001161774] was 90.9%; that for `O=C(CSc1nc(Nc2ccccc2)nc(N2CCOCC2)n1)Nc1cc(Cl)ccc1O` [MLS001035450] was 85.3%. Still for that read-out and setting: next, `CN1CCc2cccc3c2[C@@H]1Cc1ccc(O)c(O)c1-3` [NCGC00142462]: 93.3%; `COc1cccc(-c2c(C#N)c(N)nc3c2c(C)nn3-c2ccccc2)c1O` [MLS001214341]: 90.5%; `Cc1ccc(-c2nn(-c3ccccc3)c3[nH]c(=O)c(CNCc4ccccc4)cc23)cc1` [MLS000067457]: 95.4%.

Turning to `O=C(Nc1ccc(C2=NCCN2)cc1)c1ccc(C(=O)Nc2ccc(C3=NCCN3)cc2)c(Cl)c1` [MLS000737368], the viability at 3 µM is 90%.

As to `OC(c1ccc(Cl)cc1)C(CN1CCOCC1)c1ccccc1` (centres unmarked) [MLS001173582], the viability at 3 µM was found to be 99.6%. As to `O=C1c2ccccc2CCc2ccc(B(O)O)cc21` [NCGC00183917], the viability at 3 µM turned out to be 82.4%. On the same count and under the same terms, the value for `CCn1cnc2c(Nc3cc(F)cc(F)c3)nc(C#N)nc21` [NCGC00181918] was 79.4%. Take `CC1CCN(S(=O)(=O)c2ccc3c(c2)C(=NO)c2cc(S(=O)(=O)N4CCC(C)CC4)ccc2-3)CC1` [MLS000551434]: the viability at 3 µM is 6.86%. In the case of `Oc1ccc(CN2CCCCC2)nc1-c1ccccc1` [MLS000031925], the viability at 3 µM stood at 99.7%. On to `Oc1cccc(Nc2nc(NCC3CCCO3)c3ccccc3n2)c1` (centres unmarked) [MLS000026845], for which the viability at 3 µM came to 95.5%. Same read-out and setting: the value for `O=C(NCc1ccccc1)c1onc(CSc2nc3ccccc3[nH]2)c1C(=O)NCc1ccccc1` [MLS000561090] was 105%; that for `Cc1cc(Nc2cccc(Cl)c2)nc(NCc2ccccc2)n1` [MLS000591844] was 80.9%. Same read-out and setting: next, `CCOC(=O)C1CCN(Cc2cc(Cl)c3ccccc3c2O)CC1` [MLS001171913]: 87.1%.

In the case of `Cc1ccc(NC2=C/C(=N\S(=O)(=O)c3cccs3)c3ccccc3C2=O)cc1C` [MLS000585841], the viability at 3 µM was determined as 81.7%.

As to `CCNc1nc(C#N)nc2c1ncn2-c1cc(F)cc(F)c1` [MLS002471787], the viability at 3 µM worked out at 99.9%. Still for that read-out and setting: next, `Oc1ccc(-c2ccccc2)cc1CN1CCCCCC1` [MLS001195126]: 104%; `CN(C)Cc1c(O)ccc2oc(Cc3ccccc3)cc12` [MLS000039159]: 89.6%. `Cc1ccc(S(=O)(=O)N2CCN(/C(S)=N/Cc3ccc4c(c3)OCO4)CC2)cc1` [MLS001002637]: the viability at 3 µM is 97.3%. Turning to `OC(CNCC1CCCO1)Cn1c2ccc(Cl)cc2c2cc(Cl)ccc21` (centres unmarked) [MLS000525403], the viability at 3 µM was determined as 90.7%.

With `Cc1ccccc1C1C(C#N)=C2N=C(N)c3c(sc4c3CCCCC4)N2C2=C1C(=O)CCC2` (centres unmarked) [MLS000543544], the viability at 3 µM was 92.6%. Same read-out and setting: next, `CCN(CC)c1ccc(NC(=O)COc2ccccc2C#N)cc1S(=O)(=O)Nc1ccccc1OC` [MLS000339599]: 97.1%.

For `CCCC(=O)Nc1sc2c(c1C(=O)Nc1ccccn1)CCCC2` [MLS000765104], the viability at 3 µM came out at 97.6%.

Consider `COc1ccc(C)cc1Nc1nc(N)c2cc(OC)c(OC)cc2n1` [NCGC00107383], for which the viability at 3 µM is 94.9%. On the same count and under the same terms, the value for `CCOC(=O)C1CCN(C(=O)c2cc(C(C)(C)C)nn2Cc2ccccc2)CC1` [MLS000860456] was 90.8%; that for `Clc1ccc2c(N/N=C/c3ccc(Br)cc3)ccnc2c1` [MLS000589586] was 104%. For `COc1cc(NC(=O)c2cc([N+](=O)[O-])ccc2NC(=O)CNC2CCCCC2)cc(OC)c1` [MLS000950380], the viability at 3 µM was 109%. Consider `CC(NCc1ccccc1O)C12CC3CC(CC(C3)C1)C2` (centres unmarked) [MLS001173343], for which the viability at 3 µM was found to be 97.5%. On the same count and under the same terms, next, `Cc1ccc(Sc2ccc(NC(=O)CCl)cc2)cc1C` [MLS000334846]: 93.9%. Still for that read-out and setting: next, `CCC(=O)Nc1cc(=O)[nH]c2nc(-c3ccc(Cl)cc3)nn12` [MLS000779210]: 92%. Same read-out and setting: next, `O=C(Nc1ccncc1)Nc1cccc(Cl)c1Cl` [MLS001224778]: 96.5%; `Cc1ccc(C(=O)Nc2nc(-c3ccccn3)cs2)cc1[S+](=O)([O-])N1CCOCC1` [NCGC00345210]: 29.5%; `CC(C)Nc1ccc(Nc2ccnc3cc4ccccc4cc23)cc1` [MLS000766754]: 83.9%.

With `O=C(NC1=C(Nc2ccc(Cl)cc2)C(=O)c2ccccc2C1=O)c1ccccc1` [MLS000375030], the viability at 3 µM was 97.1%. On the same count and under the same terms, the value for `C=C(C)CSc1nc2sc3c(c2c(=O)n1-c1ccccc1)CCN(C)C3` [MLS001173616] was 98.7%; that for `COc1cc(O)c(C(CCN2CCCCC2)c2ccc(N(C)C)cc2)c(OC)c1` (centres unmarked) [MLS000879496] was 92.4%. Same read-out and setting: the value for `Cc1ccc(CNCc2cc3c(C(C)(C)C)nn(-c4ccccc4)c3[nH]c2=O)cc1` [MLS000067257] was 106%; that for `O[C@H]1[C@H]2c3cc4c(cc3CN3CCC(=C[C@@H]1O)[C@@H]23)OCO4` [NCGC00262562] was 83.5%.

As to `CC(C)N1CC=C(c2c[nH]c3ccccc23)CC1` [MLS000093714], the viability at 3 µM was 93.1%.

For the compound `Cc1cc(Nc2ccc(Br)c(C)c2)n2nc(C)nc2n1` [MLS000116638], the viability at 3 µM worked out at 87.3%. On the same count and under the same terms, next, `COc1ccc(CCC(=O)N2Cc3ccccc3OC3(CCN(C)CC3)C2)cc1` [NCGC00456460]: 106%; `O=C(N/N=C(/c1ccccc1)c1cccnc1)c1cccc(F)c1` [MLS001224623]: 32%; `CC(C)(C)N1C(=O)c2ccc(C(=O)Nc3ccc(-c4nc5ccccc5[nH]4)cc3)cc2C1=O` [MLS000567491]: 104%. Still for that read-out and setting: next, `CN1C2CCC1/C(=C/c1ccccn1)C(=O)/C2=C\c1ccccn1` [MLS000702810]: 83%; `CCOc1ccc(Nc2cc(=O)oc3ccccc23)cc1` [MLS000519261]: 103%. In the case of `CCc1nc(N)nc(N)c1-c1ccc(Cl)cc1` [NCGC00023188], the viability at 3 µM came out at 95.9%.
